# Tested on: Human hepatic cancer cells HepG2
# Experiment: TG production inhibiting activity (14C-acetic acid incorporation into TG) in HepG2 cells
# Type: cell-based
# Settings: Homo sapiens, HepG2, group criterion
# Procedure: Human hepatic cancer cells HepG2 were inoculated into a 24-well plate (Costar No. 3524) at 4×10^4 cells/well, and 1 ml of medium (eRDF medium containing 10% bovine serum (Kyokuto Chemical Co.)) was used for 6 day culturing with 5% CO2 at 37° C. After drawing off the supernatant medium, the cells were freshly rinsed with 1 ml of PBS(−) buffer solution (Takara Shuzo) and drawn off. This procedure was repeated twice and then 1 ml of fresh medium (eRDF medium) was added.
# 6-(benzofuran-2-yl)-3,5-dimethyl-4-hydroxy-2H-pyran-2-one (Example 2) was dissolved in dimethylsulfoxide (DMSO) to prepare a 20 mM sample stock solution. A diluted solution was obtained by diluting the sample solution with DMSO.
# To the cells prepared above there were added the sample stock solution or its diluted solution at 5 μl per well and 10 μl of ^14C-acetic acid solution (a solution of Amersham Code No. CFA13 diluted 4.4-fold with PBS(−) buffer), and culturing was carried out for one day with 5% CO2 at 37° C.
# After the culturing was completed, the culture solution was removed, and 1 ml of extraction solution (a mixture of n-hexane and isopropyl alcohol at 2:1) was added for extraction treatment on the lipid components in the cells. After the treatment, the extract containing the obtained lipid components was air-dried, the residue was redissolved in 20 μl of a mixed solution of n-hexane and ethyl acetate at 9:1, and the solution was spotted on a thin-layer chromatography plate (S319, Tokyo Kasei) and developed by thin-layer chromatography with the mixed solution mentioned above. After air-drying, the lipid components were colored with iodine vapor, the portion corresponding to TG was cut out, and the amount of TG biosynthesized was measured with a liquid scintillation counter.
# [1] = alternatives: IC50 less than 10 μM, or at least 30% inhibition at 1 μM, or at least 50% inhibition at 10 μM
# [2] = alternatives: IC50 at least 10 μM and less than 100 μM, or at least 5% and less than 30% inhibition at 1 μM, or at least 30% and less than 50% inhibition at 10 μM
Compound,IC50 [1] [µM],IC50 [2] [µM]
"Cc1c(-c2cc3cc(OCc4nccs4)ccc3o2)oc(=O)c(C)c1O [Example 60, 4-hydroxy-3,5-dimethyl-6-(5-(2-thiazolylmethoxy)benzofuran-2-yl)-2H-pyran-2-one]",,10 to 100
"CC(=O)NC(CC(=O)N1CCOCC1)C(=O)Oc1c(C)c(-c2cc3ccccc3o2)oc(=O)c1C (stereo not shown) [Example 64, 6-(benzofuran-2-yl)-3,5-dimethyl-4-(2-acetylamino-4-(morpholin-4-yl)-4-oxobutyryloxy)-2H-pyran-2-one]",< 10,
"Cc1c(O)c(CC2CCCC2)c(-c2cc3ccccc3o2)oc1=O [Example 66, 6-(benzofuran-2-yl)-5-cyclopentylmethyl-4-hydroxy-3-methyl-2H-pyran-2-one]",< 10,
"CC=CCc1c(-c2cc3ccccc3o2)oc(=O)c(C)c1O [Example 68, 6-(benzofuran-2-yl)-5-(2-butenyl)-4-hydroxy-3-methyl-2H-pyran-2-one]",,10 to 100
"Cc1c(-c2cc3ccccc3o2)oc(=O)c(C)c1OC(=O)CNC(=O)OC(C)(C)C [Example 71, 6-(benzofuran-2-yl)-4-(2-(t-butoxycarbonylamino)acetyloxy)-3,5-dimethyl-2H-pyran-2-one]",< 10,
"Cc1c(-c2cc3cc(OCC4CCCCN4C)ccc3o2)oc(=O)c(C)c1O (stereo not shown) [Example 95, 3,5-dimethyl-4-hydroxy-6-(5-(1-methylpiperidin-2-ylmethoxy)benzofuran-2-yl)-2H-pyran-2-one]",,10 to 100
"Cc1c(-c2cc3cc(OCC4CCCN(C)C4)ccc3o2)oc(=O)c(C)c1O (stereo not shown) [Example 97, 3,5-dimethyl-4-hydroxy-6-(5-(1-methylpiperidin-3-ylmethoxy)benzofuran-2-yl)-2H-pyran-2-one]",< 10,
"Cc1c(-c2cc3cc(OC(CN(C)C)CN(C)C)ccc3o2)oc(=O)c(C)c1O [Example 107, 6-(5-(1,3-bis(dimethylamino)-2-propoxy)benzofuran-2-yl)-3,5-dimethyl-4-hydroxy-2H-pyran-2-one]",,10 to 100
"Cc1c(-c2cc3cc(OCCN4CCOCC4)ccc3o2)oc(=O)c(C)c1O [Example 115, 3,5-dimethyl-4-hydroxy-6-(5-(2-(morpholin-4-yl)ethoxy)benzofuran-2-yl)-2H-pyran-2-one]",,10 to 100
"Cc1c(-c2cc3cc(OCc4cccc(C(F)(F)F)c4)ccc3o2)oc(=O)c(C)c1O [Example 122, 3,5-dimethyl-4-hydroxy-6-(5-(3-(trifluoromethyl)benzyloxy)benzofuran-2-yl)-2H-pyran-2-one]",< 10,
"Cc1c(-c2cc3cc(OCc4ccc(C(F)(F)F)cc4)ccc3o2)oc(=O)c(C)c1O [Example 124, 3,5-dimethyl-4-hydroxy-6-(5-(4-(trifluoromethyl)benzyloxy)benzofuran-2-yl)-2H-pyran-2-one]",,10 to 100
"Cc1c(-c2cc3cc(OCC4CCCC4)ccc3o2)oc(=O)c(C)c1O [Example 126, 6-(5-(cyclopentylmethoxy)benzofuran-2-yl)-3,5-dimethyl-4-hydroxy-2H-pyran-2-one]",,10 to 100
"Cc1c(-c2cc3cc(OCc4cccs4)ccc3o2)oc(=O)c(C)c1O [Example 138, 3,5-dimethyl-4-hydroxy-6-(5-((2-thienyl)methoxy)benzofuran-2-yl)-2H-pyran-2-one]",< 10,
"Cc1c(-c2cc3cc(OCc4ccc(Cl)cc4Cl)ccc3o2)oc(=O)c(C)c1O [Example 153, 6-(5-(2,4-dichlorobenzyloxy)benzofuran-2-yl)-3,5-dimethyl-4-hydroxy-2H-pyran-2-one]",< 10,
"Cc1c(-c2cc3cc(OCc4cc(Cl)ccc4Cl)ccc3o2)oc(=O)c(C)c1O [Example 155, 6-(5-(2,5-dichlorobenzyloxy)benzofuran-2-yl)-3,5-dimethyl-4-hydroxy-2H-pyran-2-one]",,10 to 100
"Cc1c(-c2cc3cc(OCc4c(Cl)cccc4Cl)ccc3o2)oc(=O)c(C)c1O [Example 157, 6-(5-(2,6-dichlorobenzyloxy)benzofuran-2-yl)-3,5-dimethyl-4-hydroxy-2H-pyran-2-one]",,10 to 100

# Second part, the compound after the results:
IC50 [1] [µM],IC50 [2] [µM],Compound
< 10,,"CC(=O)Oc1c(C)c(-c2cc3cc(OCc4nccs4)ccc3o2)oc(=O)c1C [Example 59, 4-acetyloxy-3,5-dimethyl-6-(5-(2-thiazolylmethoxy)benzofuran-2-yl)-2H-pyran-2-one]"
< 10,,"Cc1c(-c2cc3ccccc3o2)oc(=O)c(C)c1OC(=O)CCc1ccccc1 [Example 61, 6-(benzofuran-2-yl)-3,5-dimethyl-4-(3-phenylpropionyloxy)-2H-pyran-2-one]"
< 10,,"Cc1c(-c2cc3ccccc3o2)oc(=O)c(C)c1OC(=O)c1ccco1 [Example 62, 6-(benzofuran-2-yl)-3,5-dimethyl-4-(2-furoyloxy)-2H-pyran-2-one]"
< 10,,"Cc1c(-c2cc3ccccc3o2)oc(=O)c(C)c1OC(=O)c1cccnc1 [Example 63, 6-(benzofuran-2-yl)-3,5-dimethyl-4-nicotinoyloxy-2H-pyran-2-one]"
< 10,,"CC(=O)Oc1c(C)c(-c2cc3cc(Br)ccc3o2)oc(=O)c1C [Example 65, 4-acetyloxy-6-(5-bromobenzofuran-2-yl)-3,5-dimethyl-2H-pyran-2-one]"
,10 to 100,"Cc1c(O)c(Oc2ccccc2)c(-c2cc3ccccc3o2)oc1=O [Example 67, 6-(benzofuran-2-yl)-4-hydroxy-3-methyl-5-phenoxy-2H-pyran-2-one]"
< 10,,"Cc1c(-c2cc3ccccc3o2)oc(=O)c(C)c1C(=O)OC1CCC(=O)N1 (stereo not shown) [Example 70, 6-(benzofuran-2-yl)-3,5-dimethyl-4-(2-pyrrolidon-5-ylcarboxy)-2H-pyran-2-one]"
< 10,,"COc1ccc(C(=O)Oc2c(C)c(-c3cc4ccccc4o3)oc(=O)c2C)c(OC)c1 [Example 72, 6-(benzofuran-2-yl)-4-(2,4-dimethoxybenzoyloxy)-3,5-dimethyl-2H-pyran-2-one]"
,10 to 100,"Cc1c(-c2cc3ccccc3o2)oc(=O)c(C)c1OC(=O)c1ccc(O)nc1 [Example 74, 6-(benzofuran-2-yl)-3,5-dimethyl-4-(6-hydroxynicotinoyloxy)-2H-pyran-2-one]"
< 10,,"Cc1c(-c2cc3ccccc3o2)oc(=O)c(C)c1OC(=O)c1cccc(N(C)C)c1 [Example 75, 6-(benzofuran-2-yl)-3,5-dimethyl-4-(3-dimethylaminobenzoyloxy)-2H-pyran-2-one]"
< 10,,"CC(=O)Nc1ccc(C(=O)Oc2c(C)c(-c3cc4ccccc4o3)oc(=O)c2C)cc1 [Example 76, 4-(4-(acetylamino)benzoyloxy)-6-(benzofuran-2-yl)-3,5-dimethyl-2H-pyran-2-one]"
< 10,,"Cc1c(-c2cc3cc(OCc4ccccc4F)ccc3o2)oc(=O)c(C)c1O [Example 78, 3,5-dimethyl-6-(5-(2-fluorobenzyloxy)benzofuran-2-yl)-4-hydroxy-2H-pyran-2-one]"
,10 to 100,"Cc1c(-c2cc3cc(OCc4ccc(Cl)cc4)ccc3o2)oc(=O)c(C)c1O [Example 79, 6-(5-(4-chlorobenzyloxy)benzofuran-2-yl)-3,5-dimethyl-4-hydroxy-2H-pyran-2-one]"
,10 to 100,"Cc1c(-c2cc3cc(OCc4ccccc4Br)ccc3o2)oc(=O)c(C)c1O [Example 81, 6-(5-(2-bromobenzyloxy)benzofuran-2-yl)-3,5-dimethyl-4-hydroxy-2H-pyran-2-one]"
,10 to 100,"Cc1c(-c2cc3cc(OCc4cccc(Br)c4)ccc3o2)oc(=O)c(C)c1O [Example 83, 6-(5-(3-bromobenzyloxy)benzofuran-2-yl)-3,5-dimethyl-4-hydroxy-2H-pyran-2-one]"
,10 to 100,"Cc1c(-c2cc3cc(OCc4ccccn4)ccc3o2)oc(=O)c(C)c1O [Example 87, 3,5-dimethyl-4-hydroxy-6-(5-(2-pyridylmethoxy)benzofuran-2-yl)-2H-pyran-2-one]"
< 10,,"Cc1c(-c2cc3cc(OCc4cccnc4)ccc3o2)oc(=O)c(C)c1O [Example 89, 3,5-dimethyl-4-hydroxy-6-(5-(3-pyridylmethoxy)benzofuran-2-yl)-2H-pyran-2-one]"
< 10,,"Cc1c(-c2cc3cc(OCc4ccc(C(=O)O)cc4)ccc3o2)oc(=O)c(C)c1O [Example 117, 6-(5-(4-carboxybenzyloxy)benzofuran-2-yl)-3,5-dimethyl-4-hydroxy-2H-pyran-2-one]"
< 10,,"Cc1c(-c2cc3cc(OCc4ccccc4C(F)(F)F)ccc3o2)oc(=O)c(C)c1O [Example 120, 3,5-dimethyl-4-hydroxy-6-(5-(2-(trifluoromethyl)benzyloxy)benzofuran-2-yl)-2H-pyran-2-one]"
< 10,,"Cc1ccc(COc2ccc3oc(-c4oc(=O)c(C)c(O)c4C)cc3c2)cc1C [Example 134, 6-(5-(3,4-dimethylbenzyloxy)benzofuran-2-yl)-3,5-dimethyl-4-hydroxy-2H-pyran-2-one]"
,10 to 100,"Cc1c(-c2cc3cc(OC(C)c4ccccc4C(F)(F)F)ccc3o2)oc(=O)c(C)c1O (stereo not shown) [Example 144, 3,5-dimethyl-4-hydroxy-6-(5-(1-(2-(trifluoromethyl)phenyl)ethoxy)benzofuran-2-yl)-2H-pyran-2-one]"
